Measurements taken from ChEMBL document CHEMBL1201862, “PubChem BioAssay data set” (2004).
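All cell lines were grown in 96-well plates and treated with compound for 48 hours. At the GI50, growth is halved.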 Active and inactive are the calls of the source. Rule as the data show it: active = GI50 up to about 1.1 µM and inactive = higher.

Assays:
Assay in all cases: NCI anticancer screen, dose series, 48 h
[1] = tested on: UO-31
[2] = tested on: K562
[3] = tested on: A549
[4] = tested on: OVCAR-8
[5] = tested on: HOP-62
[6] = tested on: RPMI-8226
[7] = tested on: CAKI-1
[8] = tested on: U-251
[9] = tested on: SK-OV-3
[10] = tested on: HCT-15
[11] = tested on: CCRF-CEM
[12] = tested on: OVCAR-5
[13] = tested on: Malme-3M
[14] = tested on: SK-MEL-28
[15] = tested on: SF-295
[16] = tested on: HL-60
[17] = tested on: COLO 205
[18] = tested on: SF-268
[19] = tested on: HOP-92

SMILES	GI50 [1]	GI50 [2]	GI50 [3]	GI50 [4]	GI50 [5]	GI50 [6]	GI50 [7]	GI50 [8]	GI50 [9]	GI50 [10]	GI50 [11]	GI50 [12]	GI50 [13]	GI50 [14]	GI50 [15]	GI50 [16]	GI50 [17]	GI50 [18]	GI50 [19]
C[C@]12CCC(=O)C=C1CC[C@@H]1C2CC[C@]2(C)Nc3c(cnn3-c3ccccc3)CC12 (some centres not stated)	> 100 µM (inactive)	> 100 µM (inactive)	> 100 µM (inactive)	> 100 µM (inactive)	> 100 µM (inactive)	> 100 µM (inactive)	> 100 µM (inactive)	> 100 µM (inactive)	> 100 µM (inactive)	> 100 µM	> 100 µM (inactive)	> 100 µM (inactive)	> 100 µM (inactive)	> 100 µM (inactive)	> 10 µM (inactive)	> 100 µM (inactive)			
Cc1ccc(S(=O)(=O)Oc2nc3nc4ccccc4nc3nc2OS(=O)(=O)c2ccc(C)cc2)cc1	53.7 µM (inactive)		> 100 µM (inactive)	> 100 µM (inactive)		> 100 µM (inactive)	> 100 µM (inactive)	> 100 µM (inactive)	> 100 µM (inactive)	> 100 µM	5.28 µM (inactive)	> 100 µM (inactive)	> 100 µM (inactive)	> 100 µM (inactive)	> 100 µM (inactive)	> 10 µM (inactive)	> 100 µM (inactive)	> 100 µM (inactive)	
C=C1CC2(CCS(=O)(=O)c3ccccc32)OC1=O (configuration not stated)	13.2 µM (inactive)	4.04 µM (inactive)	17.9 µM (inactive)		18.3 µM (inactive)	2.74 µM (inactive)	1.48 µM (inactive)	13.2 µM (inactive)	17.6 µM (inactive)	11.9 µM	2.24 µM (inactive)	14.3 µM (inactive)	12.4 µM (inactive)	13.3 µM (inactive)	21.1 µM (inactive)	2.96 µM (inactive)	2.99 µM (inactive)	17.2 µM (inactive)	3.72 µM (inactive)
Clc1ncnc2c1nc(C#Cc1ccccc1)n2C1CCCCO1 (configuration not stated)	1.93 µM (inactive)	1.38 µM (inactive)	1.99 µM (inactive)	3.3 µM (inactive)	2.38 µM (inactive)		1.97 µM (inactive)	2.08 µM (inactive)	7.67 µM (inactive)	1.14 µM	2.33 µM (inactive)	2.42 µM (inactive)	1.95 µM (inactive)	2.21 µM (inactive)	4.47 µM (inactive)	2.59 µM (inactive)	1.62 µM (inactive)	2.32 µM (inactive)	1.8 µM (inactive)
COC(=O)c1ccccc1C1CN=NC12Cc1c(C)ccc(C)c1C2=O (configuration not stated)	> 100 µM (inactive)	68.5 µM (inactive)	> 100 µM (inactive)	> 100 µM (inactive)	> 100 µM (inactive)		> 100 µM (inactive)	> 100 µM (inactive)	> 100 µM (inactive)	> 100 µM	> 100 µM (inactive)	> 100 µM (inactive)	36.6 µM (inactive)	> 100 µM (inactive)	> 100 µM (inactive)	37.6 µM (inactive)	> 100 µM (inactive)	> 100 µM (inactive)	23.3 µM (inactive)
C=C(Cl)C(Br)(CBr)CCC(Br)C(C)(C)Br (configuration not stated)	> 10 µM (inactive)	1.88 µM (inactive)	6.87 µM (inactive)		6.67 µM (inactive)	1.83 µM (inactive)	> 10 µM (inactive)	5.11 µM (inactive)	> 10 µM (inactive)		3.89 µM (inactive)	> 10 µM (inactive)		> 10 µM (inactive)	> 10 µM (inactive)		7.33 µM (inactive)	2.51 µM (inactive)	5.06 µM (inactive)
CCOC(=O)C(=O)Nc1ccccc1OCC	92.9 µM (inactive)	> 100 µM (inactive)	> 100 µM (inactive)	> 100 µM (inactive)	> 100 µM (inactive)	> 100 µM (inactive)	> 100 µM (inactive)	> 100 µM (inactive)	> 100 µM (inactive)		> 100 µM (inactive)	> 100 µM (inactive)	> 100 µM (inactive)	> 100 µM (inactive)	> 100 µM (inactive)	> 100 µM (inactive)		> 100 µM (inactive)	> 100 µM (inactive)
CN1N=CSC12C(=O)N(c1ccccc1)C(=O)N2c1ccccc1 (configuration not stated)	> 100 µM (inactive)	> 100 µM (inactive)	> 100 µM (inactive)	> 100 µM (inactive)	> 100 µM (inactive)	> 100 µM (inactive)	> 100 µM (inactive)	> 100 µM (inactive)	> 100 µM (inactive)	> 100 µM	> 100 µM (inactive)	> 100 µM (inactive)	> 100 µM (inactive)	> 100 µM (inactive)	> 100 µM (inactive)	> 100 µM (inactive)	> 100 µM (inactive)	> 100 µM (inactive)	
Clc1cccc(Cl)c1C1SCc2nc3cc4ccccc4cc3n21 (configuration not stated)	> 100 µM (inactive)	> 100 µM (inactive)	> 100 µM (inactive)	> 100 µM (inactive)	> 100 µM (inactive)	> 100 µM (inactive)	> 100 µM (inactive)	> 100 µM (inactive)	> 100 µM (inactive)	> 100 µM	> 100 µM (inactive)	> 100 µM (inactive)	> 100 µM (inactive)	> 100 µM (inactive)	> 100 µM (inactive)		> 100 µM (inactive)	> 100 µM (inactive)	
COC(=O)c1ccccc1C1CN=NC12Cc1c(ccc(C)c1C)C2=O (configuration not stated)	> 100 µM (inactive)	> 100 µM (inactive)	> 100 µM (inactive)	61.1 µM (inactive)	57.3 µM (inactive)		> 100 µM (inactive)	48.3 µM (inactive)	72.8 µM (inactive)	> 100 µM	> 100 µM (inactive)	> 100 µM (inactive)	> 100 µM (inactive)	> 100 µM (inactive)	> 100 µM (inactive)	> 100 µM (inactive)	> 100 µM (inactive)	39.1 µM (inactive)	21.3 µM (inactive)
C=C[C@H]1C=Cc2c(OC)cccc2[C@@H]1COP1(=S)NC(C)C(c2ccccc2)O1 (some centres not stated)		37.1 µM (inactive)	83.2 µM (inactive)	81.5 µM (inactive)	> 100 µM (inactive)	27 µM (inactive)		86.3 µM (inactive)	> 100 µM (inactive)		42 µM (inactive)			> 100 µM (inactive)	> 100 µM (inactive)	18.9 µM (inactive)	97.3 µM (inactive)	62.1 µM (inactive)	
CC(C)=CCC/C(C)=C/CO [GERANIOL]	> 100 µM (inactive)	> 100 µM (inactive)	> 100 µM (inactive)	> 100 µM (inactive)	> 100 µM (inactive)	> 100 µM (inactive)	> 100 µM (inactive)	> 100 µM (inactive)	> 100 µM (inactive)	> 100 µM	> 100 µM (inactive)	> 100 µM (inactive)	> 100 µM (inactive)	> 100 µM (inactive)	> 100 µM (inactive)	> 100 µM (inactive)	> 100 µM (inactive)	> 100 µM (inactive)	
